Assay: Effect of concentration on the stability of the solution (purity over time)
Conditions: 25° C.

Purity (%) at Day 3 (0.01 wt % in water): 83.4%
Purity (%) at Day 7 (0.01 wt % in water): 73.2%
Purity (%) at hr 0 (0.01 wt % in water): 97.6%
Purity(%) at Day 14 (0.01 wt % in water): 55.2%
Purity(%) at Day 21 (0.01 wt % in water): 43.1%
Purity(%) at Day 28 (0.01 wt % in water): 32.0%
Purity (%) at Day 3 (0.1 wt % in water): 93.7%
Purity (%) at Day 7 (0.1 wt % in water): 88.3%
Purity (%) at hr 0 (0.1 wt % in water): 97.7%
Purity(%) at Day 14 (0.1 wt % in water): 80.6%
Purity(%) at Day 21 (0.1 wt % in water): 71.5%
Purity(%) at Day 28 (0.1 wt % in water): 60.7%
Purity (%) at Day 3 (1 wt % in water): 95.1%
Purity (%) at Day 7 (1 wt % in water): 90.8%
Purity (%) at hr 0 (1 wt % in water): 98.0%
Purity(%) at Day 14 (1 wt % in water): 85.1%
Purity(%) at Day 21 (1 wt % in water): 80.3%
Purity(%) at Day 28 (1 wt % in water): 73.8%
Purity (%) at Day 3 (3 wt % in water): 96.0%
Purity (%) at Day 7 (3 wt % in water): 94.3%
Purity (%) at hr 0 (3 wt % in water): 98.1%
Purity(%) at Day 14 (3 wt % in water): 89.7%
Purity(%) at Day 21 (3 wt % in water): 84.8%
Purity(%) at Day 28 (3 wt % in water): 80.6%
Purity (%) at Day 3 (5 wt % in water): 97.8%
Purity (%) at Day 7 (5 wt % in water): 97.2%
Purity (%) at hr 0 (5 wt % in water): 98.2%
Purity(%) at Day 14 (5 wt % in water): 95.3%
Purity(%) at Day 21 (5 wt % in water): 93.0%
Purity(%) at Day 28 (5 wt % in water): 90.3%
Purity (%) at Day 3 (7 wt % in water): 98.3%
Purity (%) at Day 7 (7 wt % in water): 98.1%
Purity (%) at hr 0 (7 wt % in water): 98.4%
Purity(%) at Day 14 (7 wt % in water): 98.0%
Purity(%) at Day 21 (7 wt % in water): 97.5%
Purity(%) at Day 28 (7 wt % in water): 97.0%
Purity (%) at Day 3 (8 wt % in water): 98.2%
Purity (%) at Day 7 (8 wt % in water): 98.2%
Purity (%) at hr 0 (8 wt % in water): 98.3%
Purity(%) at Day 14 (8 wt % in water): 98.1%
Purity(%) at Day 21 (8 wt % in water): 97.6%
Purity(%) at Day 28 (8 wt % in water): 97.0%
Purity (%) at Day 3 (10 wt % in water): 98.3%
Purity (%) at Day 7 (10 wt % in water): 98.3%
Purity (%) at hr 0 (10 wt % in water): 98.4%
Purity(%) at Day 14 (10 wt % in water): 98.0%
Purity(%) at Day 21 (10 wt % in water): 97.5%
Purity(%) at Day 28 (10 wt % in water): 97.1%
Purity (%) at Day 3 (15 wt % in water): 98.4%
Purity (%) at Day 7 (15 wt % in water): 98.2%
Purity (%) at hr 0 (15 wt % in water): 98.4%
Purity(%) at Day 14 (15 wt % in water): 98.1%
Purity(%) at Day 21 (15 wt % in water): 97.7%
Purity(%) at Day 28 (15 wt % in water): 97.2%
Purity (%) at Day 3 (20 wt % in water): 98.4%
Purity (%) at Day 7 (20 wt % in water): 98.3%
Purity (%) at hr 0 (20 wt % in water): 98.4%
Purity(%) at Day 14 (20 wt % in water): 98.2%
Purity(%) at Day 21 (20 wt % in water): 97.6%
Purity(%) at Day 28 (20 wt % in water): 97.2%
Purity (%) at Day 3 (30 wt % in water): 98.4%
Purity (%) at Day 7 (30 wt % in water): 98.2%
Purity (%) at hr 0 (30 wt % in water): 98.5%
Purity(%) at Day 14 (30 wt % in water): 98.1%
Purity(%) at Day 21 (30 wt % in water): 97.8%
Purity(%) at Day 28 (30 wt % in water): 97.3%
Purity (%) at Day 3 (50 wt % in water): 98.3%
Purity (%) at Day 7 (50 wt % in water): 98.2%
Purity (%) at hr 0 (50 wt % in water): 98.4%
Purity(%) at Day 14 (50 wt % in water): 98.2%
Purity(%) at Day 21 (50 wt % in water): 97.7%
Purity(%) at Day 28 (50 wt % in water): 97.3%
SMILES: CCN(CC)CCOC(=O)CCCc1ccc(N(CCS(C)(=O)=O)CCS(C)(=O)=O)cc1.Cl

From patent US20230157952A1, “METHOD FOR IMPROVING THE STABILITY OF A PHARMACEUTICAL COMPOSITION COMPRISING A HIGH PENETRATION DRUG, AND THE PHARMACEUTICAL COMPOSITION OBTAINED THEREFROM” (Techfields Inc., priority 2020, published 2023)
